Legend:
CYP3A4 = CYP3A4 (Homo sapiens, UniProt P08684); test: Cytochrome P450 (3A4) Enzyme Inhibition Test; type: in vitro ADME; conditions: substrate 7-benzyloxy-4-(trifluoromethyl)cumarin, 37° C. 30 minutes; read-out: CYP3A4 inhibitory activity IC50
Protocol: (4) Cytochrome P450 (3A4) Enzyme Inhibition Test
(§1) This test was carried out in accordance with the method of Crespi et al. (Analytical Biochemistry, 248, 188-190, 1997).
(§2) Using a 96 well plate, 7-benzyloxy-4-(trifluoromethyl)cumarin as the substrate (5×10^−5 M), each test compound (from 4.9×10^−8 to 5×10^−5 M) and the enzyme (5×10^−9 M) were incubated at 37° C. for 30 minutes in 200 μl in total volume of 200 mM phosphate buffer (pH=7.4) containing 8.2 μM NADP+, 0.41 mM glucose-6-phosphate, 0.41 mM MgCl2 and 0.4 units/ml glucose-6-phosphate dehydrogenase. Thereafter, the reaction was stopped by adding 0.5 M 2-amino-2-hydroxymethyl-1,3-propanediol aqueous solution containing 80% acetonitrile, and the fluorescence intensity (excitation wavelength; 409 nm, fluorescence wavelength; 530 nm) was measured using a fluorescence plate reader. The inhibition ratio was calculated based on the following formula, and concentration of each test compound by which the inhibition ratio becomes 50% (IC50) was obtained. Inhibition ratio (%)=100−(C1−B1)/(C0−B1)×100 C1: Fluorescence intensity in the presence of test compound having known concentration, enzyme and substrate C0: Fluorescence intensity in the absence of test compound and in the presence of enzyme and substrate B1: Fluorescence intensity of blank well (5) Cytochrome P450 (2C9) Enzyme Inhibition Test

CYP2C9 = CYP2C9 (Homo sapiens, UniProt P11712); test: Cytochrome P450 (2C9) Enzyme Inhibition Test; type: in vitro ADME; conditions: substrate 7-methoxy-4-(trifluoromethyl)cumarin, 37° C. 45 minutes; read-out: CYP2C9 inhibitory activity IC50
CYP2C9, sequence (P11712 whole entry): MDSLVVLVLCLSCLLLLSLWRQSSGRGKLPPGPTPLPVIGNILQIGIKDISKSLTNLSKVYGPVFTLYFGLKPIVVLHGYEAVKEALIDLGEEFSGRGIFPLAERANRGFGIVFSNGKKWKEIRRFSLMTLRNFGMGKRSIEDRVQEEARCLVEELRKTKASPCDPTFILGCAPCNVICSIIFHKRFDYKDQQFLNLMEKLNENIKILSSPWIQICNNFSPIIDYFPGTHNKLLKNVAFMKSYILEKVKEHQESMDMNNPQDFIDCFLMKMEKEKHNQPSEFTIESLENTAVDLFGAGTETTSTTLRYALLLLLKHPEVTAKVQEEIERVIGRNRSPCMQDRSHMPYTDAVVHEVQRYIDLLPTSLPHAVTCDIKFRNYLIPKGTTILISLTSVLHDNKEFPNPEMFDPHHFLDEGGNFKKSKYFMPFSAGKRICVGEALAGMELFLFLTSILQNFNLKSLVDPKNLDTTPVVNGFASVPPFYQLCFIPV
Protocol: as §2, §1
Using a 96 well plate, 7-methoxy-4-(trifluoromethyl)cumarin as the substrate (7.5×10^−5 M), each test compound (from 4.9×10^−8 to 5×10^−5 M) and the enzyme (10^−8 M) were incubated at 37° C. for 45 minutes in 200 μl in total volume of 200 mM phosphate buffer (pH=7.4) containing 8.2 μM NADP+, 0.41 mM glucose-6-phosphate, 0.41 mM MgCl2 and 0.4 units/ml glucose-6-phosphate dehydrogenase. Thereafter, the reaction was stopped by adding 0.5 M 2-amino-2-hydroxymethyl-1,3-propanediol aqueous solution containing 80% acetonitrile, and the fluorescence intensity (excitation wavelength; 409 nm, fluorescence wavelength; 530 nm) was measured using a fluorescence plate reader. The inhibition ratio was calculated based on the same formula of aforementioned (4), and concentration of each test compound by which the inhibition ratio becomes 50% (IC50) was obtained.

human V2 receptor = target: T1, human V2 receptor (Homo sapiens, UniProt P30518); test: V2 Receptor Binding Test; conditions: human V2 expression CHO cell membrane, [3H]-vasopressin 0.5 nM, 25° C. 60 minutes; read-out: Affinity for V2 receptor Ki
T1 construct: expressed in transfected cells; host or cells: CHO cells (membrane preparation)
T1 sequence (P30518 whole entry): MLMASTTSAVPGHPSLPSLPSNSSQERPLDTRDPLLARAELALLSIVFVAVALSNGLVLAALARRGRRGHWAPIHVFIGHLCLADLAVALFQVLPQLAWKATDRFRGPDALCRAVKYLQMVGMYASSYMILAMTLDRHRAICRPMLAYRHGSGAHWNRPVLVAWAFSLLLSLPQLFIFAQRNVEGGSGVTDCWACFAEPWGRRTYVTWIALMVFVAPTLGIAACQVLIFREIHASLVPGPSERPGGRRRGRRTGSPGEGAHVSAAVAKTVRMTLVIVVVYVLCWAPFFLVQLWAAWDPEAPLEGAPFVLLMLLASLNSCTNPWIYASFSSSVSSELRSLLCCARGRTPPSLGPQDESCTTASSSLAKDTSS
Protocol: (1) V2 Receptor Binding Test
A human V2 expression CHO cell membrane sample was prepared in accordance with the method of Tahara et al. (British Journal of Pharmacology, Vol. 125, pp. 1463-1470, 1998). A 2 μg portion of the membrane sample was incubated together with [^3H]-arginine vasopressin (to be referred simply to as “[^3H]-vasopressin” hereinafter) (0.5 nM, specific activity=75 Ci/mmol) and each compound to be tested (10^−10 to 10^−5 M) at 25° C. for 60 minutes in 250 μl in total volume of 50 mM Tris-HCl buffer (pH=7.4) containing 10 mM MgCl2 and 0.1% bovine serum albumin (BSA). Thereafter, free [^3H]-vasopressin and receptor-bonded [^3H]-vasopressin were separated using a cell harvester, and the receptor-bonded [^3H]-vasopressin was adhered onto a uni-filter plate GF/B glass filter. After sufficient drying, this was mixed with a microplate scintillation cocktail, amount of the receptor-bonded [^3H]-vasopressin was measured using top count and the inhibition ratio was calculated by the following formula. Inhibition ratio(%)=100−(C1−B1)/(C0−B1)×100 C1: Amount of [^3H]-vasopressin bonded to the membrane sample when [^3H]-vasopressin and the receptor membrane sample are treated in the coexistence of test compound having known concentration C0: Amount of [^3H]-vasopressin bonded to the membrane sample when [^3H]-vasopressin and the receptor membrane sample are treated in the absence of test compound B1: Amount of [^3H]-vasopressin bonded to the membrane sample when [^3H]-vasopressin and the receptor membrane sample are treated in the coexistence of excess amount of vasopressin (10^−6 M)
Concentration of each test compound by which the inhibition ratio becomes 50% (IC50 value) was calculated by the aforementioned formula, and affinity of the test compound for the receptor, namely dissociation constant (Ki), was calculated from this by the following formula. Dissociation constant(Ki)=IC50/(1+[L]/Kd) [L]: Concentration of [^3H]-vasopressin Kd: Dissociation constant of [^3H]-vasopressin against the receptor obtained by a saturation binding test

male Wistar rats = test: Antidiuretic Test (Intravenous Administration); type: in vivo; conditions: rat, 0.3 mg/kg intravenous, water loading 30 ml/kg 15 minutes later; for Urine excretion ratio (%) After 1 hour: urine until 1 hour; for Urine excretion ratio (%) After 2 hours: urine until 2 hours
Protocol: (2) Antidiuretic Test (Intravenous Administration)
Five animals per group of male Wistar rats (10 to 12 weeks of age) were used in the test. The compound of Example 3 was intravenously administered to group A at a dose of 0.3 mg/kg, and the compound of Example 9 to group B at a dose of 0.3 mg/kg, both after dissolving in a solvent (physiological saline containing DMSO), and the solvent alone at a dose of 1 ml/kg to group C as a control, and then 30 ml/kg of distilled water was orally administered by force 15 minutes thereafter (water loading). Urine samples until 2 hours after the water loading were collected using a metabolism cage, and the amount of urine when the water loading amount was defined as 100% was calculated as the urine excretion ratio. In this connection, average value of the urine excretion ratio until after 1 hour and the urine excretion ratio until after 2 hours in each group was used in the evaluation.

CYP3A4, sequence (P08684 whole entry): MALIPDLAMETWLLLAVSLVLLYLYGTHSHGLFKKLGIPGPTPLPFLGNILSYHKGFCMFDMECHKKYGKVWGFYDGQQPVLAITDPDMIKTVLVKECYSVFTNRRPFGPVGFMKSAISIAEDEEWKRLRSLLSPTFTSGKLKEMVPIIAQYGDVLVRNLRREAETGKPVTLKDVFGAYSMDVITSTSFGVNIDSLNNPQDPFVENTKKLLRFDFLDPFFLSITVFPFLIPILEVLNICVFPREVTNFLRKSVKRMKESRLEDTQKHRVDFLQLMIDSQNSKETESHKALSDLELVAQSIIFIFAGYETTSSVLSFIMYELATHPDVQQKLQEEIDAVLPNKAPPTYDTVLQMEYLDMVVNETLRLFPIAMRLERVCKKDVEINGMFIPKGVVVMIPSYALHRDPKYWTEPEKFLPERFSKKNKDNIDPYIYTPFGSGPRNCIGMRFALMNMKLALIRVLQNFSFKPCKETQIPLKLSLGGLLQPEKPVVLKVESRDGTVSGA

Row | Structure (SMILES) | IC50 (CYP3A4) [nM] | IC50 (CYP2C9) [nM] | Ki (human V2 receptor) [nM] | Urine excretion ratio (%) After 1 hour (male Wistar rats) [%] | Urine excretion ratio (%) After 2 hours (male Wistar rats) [%]
1 | CC(C)NC(=O)C[C@H]1CCCN(C(=O)c2ccc(N3CCCC3)cc2Cl)c2ccccc21 [Comparative compound, 2-[(5R)-1-(2-chloro-4-pyrrolidin-1-ylbenzoyl)-2,3,4,5-tetrahydrobenzazepin-5-yl]-N-isopropylacetamide, reference compound] | < 91 | < 91 | – | – | –
2 | NC(=O)CNC(=O)/C=C1/c2ccccc2N(C(=O)c2ccc(OCC3CC3)cc2C(F)(F)F)CCC1(F)F [Example 3] | > 50000 | > 50000 | 11 | 1.3 | 6.2
3 | CCCN(C)c1ccc(C(=O)N2CCC(F)(F)/C(=C\C(=O)NCC(N)=O)c3ccccc32)c(C(F)(F)F)c1 [Example 14] | – | – | 18 | – | –
4 | CCCOc1ccc(C(=O)N2CCC(F)(F)/C(=C\C(=O)NCC(N)=O)c3cc(Cl)ccc32)c(C(F)(F)F)c1 [Example 24] | – | – | 4.3 | – | –
5 | CCCOc1ccc(C(=O)N2CCC(F)(F)/C(=C\C(=O)NCCO)c3cc(F)ccc32)c(C(F)(F)F)c1 [Example 46] | – | – | 5.8 | – | –
6 | CCCOc1ccc(C(=O)N2CCC(F)(F)/C(=C\C(=O)Nc3cccc(O)c3)c3ccccc32)c(C(F)(F)F)c1 [Example 98] | – | – | 6.2 | – | –

Continued, in another order:

Row | IC50 (CYP3A4) [nM] | IC50 (CYP2C9) [nM] | Ki (human V2 receptor) [nM] | Structure (SMILES) | Urine excretion ratio (%) After 1 hour (male Wistar rats) [%] | Urine excretion ratio (%) After 2 hours (male Wistar rats) [%]
7 | 13000 | 11000 | 19 | CCCCOc1ccc(C(=O)N2CCC(F)(F)/C(=C\C(=O)NCC(N)=O)c3ccccc32)c(C(F)(F)F)c1 [Example 9] | 0 | 5.3
8 | – | – | 10 | C[C@@H](F)COc1ccc(C(=O)N2CCC(F)(F)/C(=C\C(=O)NCC(N)=O)c3cc(F)ccc32)c(C(F)(F)F)c1 [Example 31, (2Z)-N-(2-amino-2-oxoethyl)-2-{4,4,7-trifluoro-1-[4-{[(2R)-2-fluoropropyl]oxy}-2-(trifluoromethyl)benzoyl]-1,2,3,4-tetrahydro-5H-1-benzazepin-5-ylidene}acetamide] | – | –
9 | > 50000 | 34000 | – | CC(F)(F)COc1ccc(C(=O)N2CCC(F)(F)/C(=C\C(=O)NCCO)c3ccccc32)c(C(F)(F)F)c1 [Example 51, (2Z)-2-{1-[4-(2,2-difluoropropoxy)-2-(trifluoromethyl)benzoyl]-4,4-difluoro-1,2,3,4-tetrahydro-5H-1-benzazepin-5-ylidene}-N-(2-hydroxyethyl)acetamide] | – | –
10 | > 50000 | 43000 | 17 | C[C@H](F)COc1ccc(C(=O)N2CCC(F)(F)/C(=C\C(=O)NCCO)c3cc(F)ccc32)c(C(F)(F)F)c1 [Example 54, (2Z)-N-(2-hydroxyethyl)-2-{4,4,7-trifluoro-1-[4-{[(2S)-2-fluoropropyl]oxy}-2-(trifluoromethyl)benzoyl]-1,2,3,4-tetrahydro-5H-1-benzazepin-5-ylidene}acetamide] | – | –
11 | – | – | 16 | C[C@@H](F)COc1ccc(C(=O)N2CCC(F)(F)/C(=C\C(=O)NCCO)c3cc(F)ccc32)c(C(F)(F)F)c1 [Example 55, (2Z)-N-(2-hydroxyethyl)-2-{4,4,7-trifluoro-1-[4-{[(2R)-2-fluoropropyl]oxy}-2-(trifluoromethyl)benzoyl]-1,2,3,4-tetrahydro-5H-1-benzazepin-5-ylidene}acetamide] | – | –
12 | > 50000 | > 50000 | – | C[C@@H](F)COc1ccc(C(=O)N2CCC(F)(F)/C(=C\C(=O)NC[C@H](O)CO)c3ccccc32)c(C(F)(F)F)c1 [Example 130, (2Z)-2-{4,4-difluoro-1-[4-{[(2R)-2-fluoropropyl]oxy}-2-(trifluoromethyl)benzoyl]-1,2,3,4-tetrahydro-5H-1-benzazepin-5-ylidene}-N-[(2S)-2,3-dihydroxypropyl]acetamide] | – | –
13 | – | – | 12 | C[C@@H](F)COc1ccc(C(=O)N2CCC(F)(F)/C(=C\C(=O)NCCC(N)=O)c3cc(F)ccc32)c(C(F)(F)F)c1 [Example 134, 3-[((2Z)-2-{4,4,7-trifluoro-1-[4-{[(2R)-2-fluoropropyl]oxy}-2-(trifluoromethyl)benzoyl]-1,2,3,4-tetrahydro-5H-1-benzazepin-5-ylidene}acetyl)amino]propanamide] | – | –
14 | > 50000 | > 50000 | 11 | C[C@@H](F)COc1ccc(C(=O)N2CCC(F)(F)/C(=C\C(=O)NC[C@@H](O)CO)c3cc(F)ccc32)c(C(F)(F)F)c1 [Example 136, (2Z)-N-[(2R)-2,3-dihydroxypropyl]-2-{4,4,7-trifluoro-1-[4-{[(2R)-2-fluoropropyl]oxy}-2-(trifluoromethyl)benzoyl]-1,2,3,4-tetrahydro-5H-1-benzazepin-5-ylidene}acetamide] | – | –
